One series has as its target T1, 5-HT1A receptor (Rattus norvegicus, UniProt P19327).
T1 construct: the cerebral cortex is sampled and homogenized in 20 volumes of buffer; from tissue; host or cells: rat cerebral cortex homogenate (membranes)
T1 sequence (P19327 1-422): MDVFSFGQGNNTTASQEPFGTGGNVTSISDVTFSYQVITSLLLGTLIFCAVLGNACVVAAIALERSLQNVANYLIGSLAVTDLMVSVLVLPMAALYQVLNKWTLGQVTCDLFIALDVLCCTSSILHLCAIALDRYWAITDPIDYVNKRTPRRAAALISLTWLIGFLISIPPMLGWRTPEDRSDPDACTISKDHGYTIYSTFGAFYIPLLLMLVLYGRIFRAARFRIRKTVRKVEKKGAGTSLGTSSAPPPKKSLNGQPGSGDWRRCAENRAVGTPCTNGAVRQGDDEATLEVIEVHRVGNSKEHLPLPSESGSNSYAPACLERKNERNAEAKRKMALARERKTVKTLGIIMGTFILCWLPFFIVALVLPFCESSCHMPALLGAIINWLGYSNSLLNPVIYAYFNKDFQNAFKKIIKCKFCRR
Briefly: Affinity for 5-HT1A receptors, shift of (3H)8-OH-DPAT in rat cerebral cortex. To be noted: mean of at least 3 experiments, read-out: 5-HT1A affinity (pKi) (converted). Type of series: binding. Here is the method: (§1) The affinity of the compounds of the invention for the rat 5-HT1A receptor was measured conventionally from competitive experiments with a radiolabelled 5-HT1A agonist. […] This test is widely used since it is predictive of antidepressant action in man. Analgesic activity was determined after intra-peritoneal administration to rats, both with a physiological pain model and a pathological pain model. By physiological pain, the inventors designate pain whose origin is a lesion and/or organic ill-function such as pain caused by excessive nociceptive stimuli.
The in vitro affinity of the compounds of the invention for the 5-HT1A receptors was determined by measuring the shift of (^3H)8-OH-DPAT (agonist of 5HT1A receptors labelled with tritium, TRK 850; 160-240 Ci/mmole).
The study on binding with the 5-HT1A receptor was conducted as described in Naunyn-Schmiedeberg's Arch. Pharmaco. 1991, 343, 106. For these experiments, rat cerebral cortices were used. After unfreezing the brain in Tris-HCl buffer 50 mmol, pH=7.40 at 25° C., the cerebral cortex is sampled and homogenized in 20 volumes of buffer held at 4° C. The homogenate is centrifuged at 39000 g for 10 min, the centrifuge residue is suspended in the same volume of buffer and again centrifuged. After further suspension under the same conditions, the homogenate is incubated for 10 min at 37° C. then again centrifuged. The final residue is suspended in cold reaction buffer Tris-HCl 50 mmol, pH=7.40 at 25° C. containing […] of pargyline, 4 mmol of CaCl2 and 0.10% ascorbic acid. The final concentration of the tissue in the incubation medium is 10 mg/tube.
The reaction tubes contain 0.10 mL of (^3H)8-OH-DPAT (final […]), 0.10 mL of product to be tested 6-7 concentrations and 0.80 mL of tissue. Non-specific binding is defined using […] of 5-HT. The reaction tubes are incubated at 23° C. for 30 min then their content is rapidly vacuum filtered through Whatman GF/B filters, the tubes are rinsed with 2×5 mL of Tris-HCl buffer 50 mmol, pH=7.4 at 25° C. Radioactivity is collected on the filter and analyzed by liquid scintillation by adding 4 mL of scintillating liquid (Emulsifier Safe, Packard). All experiments were performed in triplicate.
The inhibition constants (Ki) of the products of the invention are estimated from shift experiments using the non-linear regression programme RADLIG version 4 by EBDA (Equilibrium Binding Data Analysis Biosoft, Cambridge, UK, Mc Pherson, 1985). The dissociation constant of the radioactive ligand used for calculations is […] for (^3H)8-OH-DPAT. The values of pKi (−log Ki) are given in the form mean±SEM of at least 3 experiments.

For series [1], the system named is rats, forced swimming immobility. As to the kind of experiment: Forced swimming test (antidepressant activity). The format is in vivo. Particulars: rat, oral, even at a dose of 40 mg/Kg. Here is the method:
as §1
The rats (Male Sprague Dawley rats (ICO: OFA SD [IOPS], Iffa Credo, France), are placed in a cylinder (45 cm high and 20 cm in diameter) filled with water at 25° C.±0.5 up to a height of 17 cm. This depth allows rats to swim or float without their tail touching the bottom of the cylinder.
24 h before the test day, the rats are placed in the cylinder for 15 min, a lapse of time after which they no longer attempt to escape and remain immobile. On the test day the animals are replaced in the cylinder and the duration of animal immobility is measured by direct observation followed by verification of an audiovisual recording for 5 min. The products of the invention are administered by oral route 60 min before the test. A rat is considered to be immobile if it allows itself to float and only makes small movements to remain on the surface. Two rats are observed at the same time.
(§2) Quantification of the effect of the compounds of the invention on the forced swimming tests and on the formol test is conducted by one-factor variance analysis between groups (ANOVA analysis) followed by a multiple comparison test (Dunnett's test) versus control animals. The ED50 value is calculated using Litchfield and Wilcoxon analysis from the percentage of responding animals.

Series [2] concerns rats, formol-induced pain. As to the kind of experiment: Formol test (analgesic activity, physiological pain). Type of series: in vivo. Particulars: rat, i.p.
Text: (§3) The physiological pain model chosen by the inventors to determine the analgesic activity of the compounds of the invention uses excess nociceptive stimuli (injection of formol) to cause a painful sensation in animal (Eur. J. Pharmacol. 2001, 421, 109). For the so-called pathological pain model in animal, the inventors chose to use pain induced by the injection of a cytotoxic agent such as oxaliplatine (Eur. J. Cancer 2007, 2658).
The rats (Male Sprague Dawley rats (ICO: OFA SD [IOPS], Iffa Credo, France) are placed in plexiglass observation boxes above an angled mirror so as to facilitate observation of the hind paws. After thirty minutes of habituation, the animals are given an injection of formol diluted to 2.5% on the plantar surface of the right hind paw. The injection of formol produces behavioural responses which occur in two phases:
an acute phase, from 0 to 5 min after injection of the formol, corresponding to stimulation of receptors specialized in the transmission of pain messages to the spinal cord.
a late phase which occurs 20 to 30 min after the injection. This phase corresponds to stimulation of receptors by inflammatory mediators and/or to hyper-excitability of the dorsal horn induced during the first phase. This late phase therefore involves central sensitization.
For the study of the compounds of the invention we selected two expressions of painful behaviour and chose two periods of observation which correspond to the two pain phases (i.e. 0-5 min and 22.5-27.5 min). During these two 5-min periods the animals are observed every 30 seconds and are given scores for the following behaviours: paw licking or not of the injected paw, and lifting or non-lifting of the injected paw. Ten observations give a maximum score of 10 for each parameter for each of the 2 phases. The products of the invention are administered via intraperitoneal route 15 min before the injection of formol.
as §2
For this test, the animals are observed every 30 seconds during two periods of 5 min. The following behaviours are noted: paw licking or not of the injected paw, and paw lifting or not of the injected paw. Ten observations give a maximum score of 10 for each parameter for each of the 2 phases, measuring either paw lifting or paw licking. This test was also performed by comparison with administration of the vehicle (veh) alone.

Series [3] relates to rats, oxaliplatine-induced allodynia. As to the kind of experiment: Oxaliplatine test, von Frey (analgesic activity, pathological pain). Type of series: in vivo. To be noted: rat, i.p., even at a dose of 2.5 mg/kg.
Text: as §3
The rats (Male Sprague Dawley rats (ICO: OFA SD [IOPS], Iffa Credo, France) are tested a first time on the Friday to determine their mechanical sensitivity threshold (von Frey test). They are then given an intra-peritoneal injection (i.p.) of oxaliplatine (anticancer treatment causing neuropathic pain in patients) at a dose of 8 mg/kg. This dose in rat induces neuropathy which translates as mechanical hypersensitivity (allodynia) which develops 3 days after the injection with a peak on day five. For the study of the compounds of the invention, the animals are re-tested on day five, 15 min after administration of the compound via intra-peritoneal route.
The pressure force is then measured (in g) at which withdrawal of the paw of the animals is observed.

Structures can show the parent of a compound that is named as a salt. Some results are limits rather than exact numbers.

As to `N#Cc1cccc2c1OC(CNCC1(F)CCN(C(=O)c3ccc(F)c(Cl)c3)CC1)CN2` (stereo not drawn) [Compound 1f, (3-Chloro-4-fluoro-phenyl)-{4-fluoro-4-[(3,4-dihydro-2H-8-cyano-1,4-benzoxazine-2-methanamino)-methyl]-piperidin-1-yl}-methanone], the Ki on 5-HT1A receptor is 0.646 nM.

Molecule `CN1CC(CNCC2(F)CCN(C(=O)c3ccc(F)c(Cl)c3)CC2)Oc2ccccc21` (stereo not drawn) (as salt: fumarate) [Compound 1g, (3-Chloro-4-fluoro-phenyl)-{4-fluoro-4-[(3,4-dihydro-2H-4-methyl-1,4-benzoxazine-2-methanamino)-methyl]-piperidin-1-yl}-methanone] gave a melting point of 125 °C.

Consider `O=C(c1ccc(F)c(Cl)c1)N1CCC(F)(CNCC2CNc3cccc(Cl)c3O2)CC1` (stereo not drawn) [Compound 1d, (3-Chloro-4-fluoro-phenyl)-{4-fluoro-4-[(3,4-dihydro-2H-8-chloro-1,4-benzoxazine-2-methanamino)-methyl]-piperidin-1-yl}-methanone], for which the Ki on 5-HT1A receptor was 2.29 nM.

For `O=C1CC2(CCCC2)CC(=O)N1CCCCN1CCN(c2ncccn2)CC1` [buspirone, reference compound], in series [1], the “effect on animal immobility” value is given as “no effect on animal immobility”. Besides, the “dose on and after which paw lifting is affected” value in series [2] (acute phase and late phase) was not below 2.5 mg/kg. In addition, the “dose on and after which paw licking is inhibited” value in series [2] (late phase) is given as not below 2.5 mg/kg. In series [3], the “analgesia, in words” value is reported as “does not produce any significant analgesia”.

Turning to `O=C(c1ccc(F)c(Cl)c1)N1CCC(F)(CNCC2CNc3cccc(F)c3O2)CC1` (stereo not drawn) [Compound 1b, (3-Chloro-4-fluoro-phenyl)-{4-fluoro-4-[(3,4-dihydro-2H-8-fluoro-1,4-benzoxazine-2-methanamino)-methyl]-piperidin-1-yl}-methanone], at 5-HT1A receptor, the Ki is 0.631 nM.

In the case of `Cc1cccc2c1OC(CNCC1(F)CCN(C(=O)c3ccc(F)c(Cl)c3)CC1)CN2` (stereo not drawn) [Compound 1c, (3-Chloro-4-fluoro-phenyl)-{4-fluoro-4-[(3,4-dihydro-2H-8-methyl-1,4-benzoxazine-2-methanamino)-methyl]-piperidin-1-yl}-methanone], the Ki at 5-HT1A receptor was 1.23 nM.

Consider `NC(=O)c1cccc2c1OC(CNCC1(F)CCN(C(=O)c3ccc(F)c(Cl)c3)CC1)CN2` (stereo not drawn) [Compound 1h, (3-Chloro-4-fluoro-phenyl)-{4-fluoro-4-[(3,4-dihydro-2H-8-carbamoyl-1,4-benzoxazine-2-methanamino)-methyl]-piperidin-1-yl}-methanone], for which the Ki at 5-HT1A receptor was 0.741 nM.

For the molecule `COc1cccc2c1OC(CNCC1(F)CCN(C(=O)c3ccc(F)c(Cl)c3)CC1)CN2` (stereo not drawn) [Compound 1e, (3-Chloro-4-fluoro-phenyl)-{4-fluoro-4-[(3,4-dihydro-2H-8-methoxy-1,4-benzoxazine-2-methanamino)-methyl]-piperidin-1-yl}-methanone], the Ki on 5-HT1A receptor was 1.51 nM.

For `CN1CC(CNCC2(F)CCN(C(=O)c3ccc(F)c(Cl)c3)CC2)Oc2ccccc21` (stereo not drawn) [Compound 1g, (3-Chloro-4-fluoro-phenyl)-{4-fluoro-4-[(3,4-dihydro-2H-4-methyl-1,4-benzoxazine-2-methanamino)-methyl]-piperidin-1-yl}-methanone], the Ki on 5-HT1A receptor was 0.794 nM.

The molecule `O=C(c1ccc(F)c(Cl)c1)N1CCC(F)(CNCC2CNc3cccc(F)c3O2)CC1` (stereo not drawn) (as salt: fumarate) [Compound 1b, (3-Chloro-4-fluoro-phenyl)-{4-fluoro-4-[(3,4-dihydro-2H-8-fluoro-1,4-benzoxazine-2-methanamino)-methyl]-piperidin-1-yl}-methanone] showed a melting point of 100 °C.

In turn, `O=C(c1ccc(F)c(Cl)c1)N1CCC(F)(CNCC2CNc3ccccc3O2)CC1` (single isomer, unassigned; (-)) (as salt: fumarate) [Compound 1a1, (−)-(3-Chloro-4-fluoro-phenyl)-{4-fluoro-4-[(3,4-dihydro-2H-1,4-benzoxazine-2-methanamino)-methyl]-pipéridin-1-yl}-methanone] yielded a melting point of 185 °C.

As for `O=C(c1ccc(F)c(Cl)c1)N1CCC(F)(CNCC2CNc3ccccc3O2)CC1` (stereo not drawn) (as salt: hydrochloride) [Compound 1a3, (3-Chloro-4-fluoro-phenyl)-{4-fluoro-4-[(3,4-dihydro-2H-1,4-benzoxazine-2-methanamino)-methyl]-piperidin-1-yl}-methanone], the melting point is 175 °C.

Source of the values: patent publication US8669250B2, “Derivatives of aryl-{4-halogeno-4-[aminomethyl]-piperidin-1-yl}-methanone, their method of preparation and their use as medicinal products” (Pierre Fabre Medicament, priority 2009, dated 2014).
